Results from PMC11790949, “A multiplex method for rapidly identifying viral protease inhibitors” (Molecular Systems Biology, 2025).
“And” between values parts separate entries of the source, which are not always exact repeats. Identical values can stand only once.

Experiments:
SARS-CoV-2 3CL protease [1] = molecular target: T1, SARS-CoV-2 3CL protease (Severe acute respiratory syndrome coronavirus 2, UniProt P0DTD1); test: Biochemical inhibition of peptide cleavage by purified SARS-CoV-2 3CL protease (fluorogenic)
SARS-CoV-2 3CL protease [2] = molecular target: T1, SARS-CoV-2 3CL protease; test: Mass spectrometry (MALDI-TOF) analysis of protein-inhibitor complex; format: binding; settings: 50 μM protease, 500 μM inhibitor, 1 h at 4 °C
Protocol: For MALDI-TOF MS analysis, 1 µL of the protein-inhibitor complex (3CL protease only and 3CL protease-CB6778425) was mixed with 9 µL of 10 mg/mL sinapinic acid in the matrix solution (70:30 water/acetonitrile, with 0.1% TFA). About 1.0 µL of the final mix was deposited onto the target carrier and allowed to air dry. MALDI spectra of the protein-inhibitor complex were compared with ligand-free 3CL protease to determine the mass shift. MALDI spectra were collected with the software flexControl, while MALDI data were analyzed by flexAnalysis.

[3] = read-out: SARS-CoV-2 3CL Inhibition (%)

## O=C(Oc1ccc2ccc(=O)oc2c1)c1cccs1 [CB6762077]
SARS-CoV-2 3CL protease [1]
  IC50: 1100 nM
  shift of IC50 upon pre-incubation with SARS-CoV-2 3CL: shifts to lower IC50s
SARS-CoV-2 3CL protease [1]; [3]
  inhibition at 0.19382 µM: 71.8%
  inhibition at 0.390625 µM: 12.9%
  inhibition at 0.49485 µM: 77.7%
  inhibition at 0.78125 µM: 30.2%
  inhibition at 0.79588 µM: 75.9%
  inhibition at 1.09691 µM: 90.1%
  inhibition at 1.39794 µM: 88.9%
  inhibition at 1.69897 µM: 94.3%
  inhibition at 2 µM: 112%

## O=C(Oc1ccc2ccc(=O)oc2c1)c1ccco1 [CB6778425]
SARS-CoV-2 3CL protease [1]; [3]
  inhibition at 0.000762939 µM: 0.215%
  inhibition at 0.00152588 µM: 4.28%
  inhibition at 0.0244141 µM: 19.7%
  inhibition at 0.0488281 µM: 39.2%
  inhibition at 0.0976563 µM: 62.7%
  inhibition at 0.19382 µM: 104%
  inhibition at 0.195313 µM: 85.1%
  inhibition at 0.390625 µM: 94.5%
  inhibition at 0.49485 µM: 102%
  inhibition at 0.78125 µM: 98.7%
  inhibition at 0.79588 µM: 95%
  inhibition at 1.09691 µM: 96.4%
  inhibition at 1.39794 µM: 103%
  inhibition at 1.69897 µM: 98%
  inhibition at 2 µM: 95%
  inhibition at 2.30103 µM: 90.6%
  inhibition at […]: 11.4%
SARS-CoV-2 3CL protease [2]
  mass shift in the protease-inhibitor complex: ~ 95 Da

## CCc1cc(=O)oc2cc(OC(=O)c3ccco3)ccc12 [CB6728297]
SARS-CoV-2 3CL protease [1]
  IC50: 245 nM
  shift of IC50 upon pre-incubation with SARS-CoV-2 3CL: shifts to lower IC50s
SARS-CoV-2 3CL protease [1]; [3]
  inhibition at 0.0976563 µM: 9.07%
  inhibition at 0.19382 µM: 94.7% and 89.2%
  inhibition at 0.195313 µM: 39.5%
  inhibition at 0.390625 µM: 64.9%
  inhibition at 0.49485 µM: 88.9%
  inhibition at 0.78125 µM: 90.8%
  inhibition at 0.79588 µM: 93.8%
  inhibition at 1.09691 µM: 98.7%
  inhibition at 1.39794 µM: 93.4%
  inhibition at 1.69897 µM: 95.6%
  inhibition at 2 µM: 88.8%
  inhibition at 2.30103 µM: 99.1%
